Four substances from patent US6703198B1, “Methods of diagnosing alagille syndrome” (The University of Washington, priority 1997, dated 2004) can be followed below.

Where “and” joins values, the source holds several entries; their conditions need not be identical. Identical values can stand only once. Entries after “also recorded” stand apart in the source; their conditions may differ. Where no end group is shown, it is not given here.

For assay [1], the system named is full-length Notch1-expressing 32D cells. Description: G-CSF-induced granulocytic differentiation of full-length Notch1-expressing 32D myeloid progenitor clones in the presence of hJAGGED1 peptides. The class given is cell-based, mouse. The settings on record: 10 μM peptide, 20 ng/ml G-CSF, FIG. 4. As for the experimental part:
The ability of the hJAGGED1 HS-27a human stromal cell line to effect differentiation of hematopoietic progenitors was analyzed using the interleukin-3 (IL-3)-dependent myeloid cell line, 32D. The 32D cell line, which was derived from normal mouse bone marrow, is a heterogeneous cell line with individual cells having characteristics of myeloid cells at various early stages of maturation. 32D cells proliferate as undifferentiated blasts in the presence of IL-3, but differentiate into mature granulocytes when stimulated with granulocyte colony stimulating factor (G-CSF; Valtieri et al. Immunol. 138:3829-3835 (1987), which is incorporated herein by reference), thereby providing a system for analyzing factors that may affect myeloid differentiation.
The HS-27a, HS-23 and HS-5 human stromal cell lines were maintained in RPMI containing 10% FCS as described in Roecklein and Torok-Storb, supra, 1995. 32D cells were maintained in Iscove's Modified Dulbecco's Medium (IMDM) with 10% fetal bovine serum (FBS) and 10% WCM as a source of IL-3. For differentiation experiments, 32D cell lines were harvested in log phase, washed, counted, and replated at constant density (2×10^5 cells/ml, 4 ml/well) in 6-well plates in IMDM, 10% FBS, 0.5% WCM and 20 ng/ml recombinant human G-CSF from Amgen (Thousand Oaks, Calif.). Aliquots of […] were removed daily for analysis and replaced with fresh media. Viable cells were counted, and Wright stained cytospins were evaluated for granulocytic differentiation as follows. […] Criteria for granulocytic differentiation included nuclear segmentation, an increased cytoplasmic to nuclear ratio, and increased eosinophilia and granularity of the cytoplasm. […]
Three peptides corresponding to different regions of the hJAGGED1 molecule were analyzed for their effect on differentiation of Notch1-expressing 32D cells treated with G-CSF. […]
Peptide SEQ ID NO:9 (“J-A”) has the sequence […]. […] Differentiation of 32D cells in the presence of hJAGGED peptides was analyzed as described above. […]

Assay [2] has as its system mouse hematopoietic progenitor cells (Sca-1+ lin-). The experiment in a line: Number of G-CFU formed from mouse hematopoietic progenitor cells treated with G-CSF and cell culture supernatant. As to conditions: for Number of CFU-G-CSF, Average: average of samples 1-4, control BHK supernatant about 60. The class given is cell-based. As for the experimental part:
A soluble fragment of hJAGGED1 (SEQ ID NO:7), which contains the extracellular domain of hJAGGED1 including the signal peptide, DSL region, EGF-like repeats and cysteine-rich region, was prepared by amplifying a portion of the hJAGGED1 cDNA with PCR primers 420 (SEQ ID NO:20; […]) and 421 (SEQ ID NO:21; […]). The hJAGGED1 cDNA fragment, corresponding to residues 1 to 1010, was subcloned into expression vector pDX to generate pDX-hJg1.Ex. After transfection into BHK and COS cells, the cell culture supernatant was assayed for the ability to effect the number of G-CFU formed from mouse hematopoietic progenitor cells ([…] lin^−), which were prepared by removing cells that stained with anti-Gr-1, anti-CD4, anti-CD11b, anti-CD2, anti-CD45R and anti-Ter-119 and then positively selecting Sca-1^+ cells with anti-Sca-1.

Regarding “CDDYYYGFGCNKFCRPR (cysteine pairing not given here) [peptide SEQ ID NO:9, 17-mer, residues 188 to 204 of hJAGGED1, portion of the DSL domain]”, the “differentiation of full-length Notch1-expressing 32D clones in the presence of G-CSF and peptide” value (“differentiation … of G-CSF and peptide” below) in assay [1] was “significantly inhibited”.
Turning to “CRQGCSPKHGSCKLPGDCRCQYG [peptide SEQ ID NO:10, residues 235 to 257 of hJAGGED1, part of EGF-repeat 1 in the extracellular domain]”, the “differentiation … of G-CSF and peptide” value in assay [1] is listed as “comparable to that observed with G-CSF alone; also recorded: unaffected”.
On to “KRRKPGSHTHSASEDNTTN [peptide SEQ ID NO:11, residues 1096 to 1114 of hJAGGED1, hydrophilic portion of the intracellular domain]”, for which, in assay [1], the “differentiation … of G-CSF and peptide” value is “comparable to that observed with G-CSF alone; also recorded: unaffected”.
With “hJAGGED1 fragment SEQ ID NO:7: soluble fragment of hJAGGED1, residues 1 to 1010 (extracellular domain), tested as supernatant of transfected BHK cells”, the “Number of CFU-G-CSF, Average” value is given as 24 in assay [2] (Sca-1+ lin- cells treated with G-CSF, listed as Supernatant of BHK cells transfected with pDX-hJg1.Ex) and “about 24” in assay [2] (Sca-1+ lin- cells treated with G-CSF, listed as supernatant from BHK cells transfected with the hJAGGED1 extracellular domain co). Further, the “granulocytic differentiation of mouse hematopoietic progenitor cells” value in assay [2] (conclusion from Table 2) is listed as “inhibits granulocytic differentiation”. Besides, the “Number of CFU-G-CSF” value in assay [2] (individual samples, Sca-1+ lin- cells treated with G-CSF, BHK cell supernatant, listed as Supernatant of BHK cells transfected with pDX-hJg1.Ex) is 19 and 34 and 20 and 23.
